One test has as its system NCI-H358 cells. As to the kind of experiment: Proliferation inhibition on NCI-H358 cell line by CTG method. Type of test: cell-based, human. The note with it: CellTiter Glo, 120 hours. As to the method:
(§1) NCI-H358 was a human non-small cell lung cancer cell with KRAS G12C mutation; A549 was a human non-small cell lung cancer cell with KRAS G12V mutation: and A375 was a wild-type malignant melanoma cell. The inhibitory effects of compounds on different mutations were evaluated by testing the proliferation inhibitory activity of these compounds on the three cell lines.
(§2) 40 μL of cell suspension to be tested was added to each well (except for peripheral wells) of three 384-well plates (plate 1: NCI-H358 cell suspension: plate 2: A549 cell suspension: plate 3: A375 cell suspension). The plates were placed in a carbon dioxide incubator overnight. […] The plates were incubated in a carbon dioxide incubator for 120 hours. To the 384-well plates were added 25 μL of CellTiter Glo reagents, and the mixture was shaken in the dark for 10 minutes and incubated for 10 minutes. The plates were read on the EnVision plate reader. XLFit was used to draw inhibition rate curves of efficacy and IC50 values were calculated. […] “---” represents not determined.
Experiments for Testing Proliferation Inhibition of Compounds on NCI-H358 Cell Lines by CTG Method

The subject of another test is A549 cells. Put plainly: Proliferation inhibition on A549 cell line by CTG method. Type of test: cell-based, human. As to the method: as §1, §2
A further test has as its system A375 cells. Put plainly: Proliferation inhibition on A375 cell line by CTG method. The note with it: Table 1, CellTiter Glo, 120 hours, class symbol. Type of test: cell-based. As to the method:
as §1, §2
Background: ATP-based viability assays read luminescence as a measure of living cells.

Where [1] appears, read: Homo sapiens, NCI-H358, 120 h, Table 2, class symbol, read-out: IC50 (nM) H358.
Setting [2] is: Homo sapiens, A549, 120 h, Table 1, CellTiter Glo, class symbol.
[3] abbreviates: Homo sapiens, NCI-H358, 120 h, Table 1, class symbol, read-out: IC50 (μM): (H358).
The mark [4] stands for this setting: Table 1, class symbol, read-out: IC50 (μM): (H358).
Setting [5] is: Table 1, CellTiter Glo, 120 hours, class symbol.

Where two headings read alike, the source gives them in different places.

As usually defined, the IC50 is the point on the concentration scale where inhibition reaches its midpoint.

With `CN(C)C/C=C/C(=O)N1CCN(c2nc(OC[C@@H]3CCCN3C)nc3c2CO[C@H](c2cccc4cccc(Cl)c24)C3)C[C@@H]1CC#N` [Compound 36], in the test on NCI-H358 cells (setting [1]), the IC50 was under 1000 nM.
Take `C=CC(=O)N1CCN(c2nc(OC[C@@H]3CCCN3C)nc3c2COC(c2cccc4cccc(Cl)c24)C3)C[C@@H]1CC#N` (stereo partly drawn) [Compound 25]: the IC50 was over 1 µM in the test on A549 cells (setting [2]); under 1000 nM with NCI-H358 cells (setting [3]); over 1 µM in the test on A375 cells (Homo sapiens, A-375).
As for `C=CC(=O)N1CCN(c2nc(OCCN(CC)CC)nc3c2COC(c2cccc4cccc(C)c24)C3)C[C@@H]1CC#N` (stereo partly drawn) [Compound 6-2], the IC50 in the test with A549 cells (setting [2]) was over 1 µM; in the test with NCI-H358 cells (setting [3]) it was under 1000 nM.
In the case of `C=C(F)C(=O)N1CCN(c2nc(OC[C@H]3CCCN3C)nc3c2COC(c2cccc4cccc(Cl)c24)C3)C[C@@H]1CC#N` (stereo partly drawn) [Compound 32-2], the concentration for half-maximal inhibition (IC50) in the test on A549 cells (setting [2]) is over 1 µM; in the test on NCI-H358 cells (setting [3]), under 1000 nM; in the test with A375 cells (Homo sapiens, A-375), over 1 µM.
On to `C=C(F)C(=O)N1CCN(c2nc(OC[C@H]3CCCN3C)nc3c2COC(c2ccccc2C(F)(F)F)C3)C[C@@H]1CC#N` (stereo partly drawn) [Compound 19-2], for which the IC50 in the test with A549 cells (setting [2]) was over 1 µM; in the test on NCI-H358 cells (setting [3]) it was under 1000 nM; in the test on A375 cells (Homo sapiens, A-375) it was over 1 µM.
As for `C=C(F)C(=O)N1CCN(c2nc(OC[C@@H]3CCCN3C)nc3c2COC(c2cccc4cccc(C)c24)C3)C[C@@H]1CC#N` (stereo partly drawn) [Compound 13], the concentration for half-maximal inhibition (IC50) with A549 cells (setting [2]) is over 1 µM; with NCI-H358 cells (setting [3]), under 1000 nM; in the test on A375 cells (Homo sapiens, A-375), over 1 µM.
For `C=CC(=O)N1CCN(c2nc(OC[C@@H]3CC(F)(F)CN3C)nc3c2COC(c2cccc4cccc(C)c24)C3)C[C@@H]1CC#N` (stereo partly drawn) [Compound 15], the IC50 with A549 cells (setting [2]) was over 1 µM; in the test on NCI-H358 cells (setting [3]), under 1000 nM; in the test on A375 cells (Homo sapiens, A-375), over 1 µM.
In the case of `C=CC(=O)N1CCN(c2nc(SCCN(C)C)nc3c2CO[C@H](c2cccc4cccc(Cl)c24)C3)C[C@@H]1CC#N` [Compound 46], in the test with NCI-H358 cells (setting [1]), the concentration for half-maximal inhibition (IC50) was under 1000 nM.
In the case of `C=C(F)C(=O)N1CCN(c2nc(OC[C@@H]3CCCN3C)nc3c2COC(c2ccccc2Cl)C3)C[C@@H]1CC#N` (stereo partly drawn) [Compound 30], the IC50 in the test with A549 cells (setting [2]) was over 1 µM; in the test on NCI-H358 cells (setting [3]) it was under 1000 nM; in the test on A375 cells (Homo sapiens, A-375), over 1 µM.
As for `C=CC(=O)N1CCN(c2nc(OCCCN(C)C)nc3c2COC(c2cccc4cccc(C)c24)C3)C[C@@H]1CC#N` (stereo partly drawn) [Compound 7], the 50% inhibitory concentration (IC50) in the test on A549 cells (setting [2]) was over 1 µM; with NCI-H358 cells (setting [3]), under 1000 nM.
In the case of `C=CC(=O)N1CCN(c2nc(OC[C@@H]3CCCN3C)nc3c2COC(c2cccc4cccc(C)c24)C3)CC1` (stereo partly drawn) [Compound 8], the IC50 was over 1 µM with A549 cells (setting [2]) and under 1000 nM in the test with NCI-H358 cells (setting [3]).
For `C=CC(=O)N1CCN(c2nc(OC[C@@H]3CCCN3C)nc3c2COC(c2cccc4cccc(C)c24)C3)[C@@H](C)C1` (stereo partly drawn) [Compound 11-2], the half-maximal inhibitory concentration (IC50) in the test on A549 cells (setting [2]) was over 1 µM; in the test with NCI-H358 cells (setting [3]) it was under 1000 nM; in the test with A375 cells (Homo sapiens, A-375), over 1 µM.
Turning to `C=C(F)C(=O)N1CCN(c2nc(OC[C@@H]3CCCN3C)nc3c2COC(c2cccc4cccc(Cl)c24)C3)C[C@@H]1CC#N` (stereo partly drawn) [Compound 12-2], the IC50 was over 1 µM in the test with A549 cells (setting [2]); under 1000 nM in the test with NCI-H358 cells (setting [3]); over 1 µM in the test on A375 cells (Homo sapiens, A-375).
Regarding `C/C=C/C(=O)N1CCN(c2nc(OC[C@@H]3CCCN3C)nc3c2COC(c2cccc4cccc(C)c24)C3)C[C@@H]1CC#N` (stereo partly drawn) [Compound 10], the IC50 in the test on A549 cells (setting [2]) was over 1 µM; in the test with NCI-H358 cells (setting [3]), under 1000 nM; with A375 cells (Homo sapiens, A-375) it was over 1 µM.
On to `C=CC(=O)N1CCN(c2nc(OC[C@@H]3CCCN3C)nc3c2COC(c2cccc4ccccc24)C3)C[C@@H]1CC#N` (stereo partly drawn) [Compound 3-2], for which the IC50 in the test with A375 cells was over 1 µM.
Turning to `C=CC(=O)N1CCN(c2nc(OC[C@@H]3CCCN3C)nc3c2COC(c2cccc4cccc(C)c24)C3)C[C@@H]1CC#N` (stereo partly drawn) [Compound 4-1], the 50% inhibitory concentration (IC50) is under 1000 nM in the test on NCI-H358 cells (setting [4]) and over 1 µM in the test on A375 cells (Homo sapiens, A-375).
Turning to `Cc1cccc2cccc(C3Cc4nc(OC[C@@H]5CCCN5C)nc(N5CCN(C(=O)/C=C/CN(C)C)[C@@H](CC#N)C5)c4CO3)c12` (stereo partly drawn) [Compound 17], the concentration for half-maximal inhibition (IC50) in the test with A549 cells (setting [2]) is over 1 µM; with NCI-H358 cells (setting [3]), under 1000 nM; with A375 cells (Homo sapiens, A-375) it was over 1 µM.
On to `C=CC(=O)N1CCN(c2nc(OC[C@@H]3CCCN3C)nc3c2COC(c2cccc4cccc(C)c24)C3)C[C@@H]1CC#N` (stereo partly drawn) [Compound 4-2], for which the IC50 was over 1 µM in the test on A549 cells (setting [5]), under 1000 nM in the test on NCI-H358 cells (setting [4]) and over 1 µM in the test with A375 cells.
On to `CC(=O)/C=C/C(=O)N1CCN(c2nc(OC[C@@H]3CCCN3C)nc3c2CO[C@H](c2cccc4cccc(Cl)c24)C3)C[C@@H]1CC#N` [Compound 44], for which the concentration for half-maximal inhibition (IC50) in the test on NCI-H358 cells (setting [1]) was under 1000 nM.
With `Cc1cccc2cccc(C3Cc4nc(OC[C@@H]5CCCN5C)nc(N5CCN(C(=O)/C=C/CN6CCOCC6)[C@@H](CC#N)C5)c4CO3)c12` (stereo partly drawn) [Compound 31], the half-maximal inhibitory concentration (IC50) was over 1 µM in the test with A549 cells (setting [2]); under 1000 nM in the test with NCI-H358 cells (setting [3]); over 1 µM in the test on A375 cells (Homo sapiens, A-375).
Regarding `CN1CCC[C@H]1COc1nc2c(c(N3CCN(C#N)[C@@H](CC#N)C3)n1)CO[C@H](c1cccc3cccc(Cl)c13)C2` [Compound 41], the half-inhibitory concentration (IC50) in the test with NCI-H358 cells (setting [1]) was under 1000 nM.
For `C=CC(=O)N1CCN(c2nc(OC[C@@H]3CCCN3C)nc3c2COC(c2cccc4ccccc24)C3)C[C@@H]1CC#N` (stereo partly drawn) [Compound 3-1], in the test with A375 cells (Homo sapiens, A-375), the half-maximal inhibitory concentration (IC50) was over 1 µM.
Regarding `C=CC(=O)N1CCN(c2nc(N(C)CCN(C)C)nc3c2COC(c2cccc4cccc(C)c24)C3)C[C@@H]1CC#N` (stereo partly drawn) [Compound 9], the concentration for half-maximal inhibition (IC50) with A549 cells (setting [2]) is over 1 µM; with NCI-H358 cells (setting [3]) it was under 1000 nM.
For `C=CC(=O)N1CCN(c2nc(OCCN(C)C)nc3c2COC(c2cccc4cccc(C)c24)C3)C[C@@H]1CC#N` (stereo partly drawn) [Compound 5], in that order: over 1 µM and under 1000 nM.
The like results for `C=CC(=O)N1CCN(c2nc(OC[C@@H]3CCCN3C)nc3c2COC(c2cccc4cccc(C)c24)C3)C[C@@H]1CC#N` (stereo partly drawn) [Compound 4] were, in that order, over 1 µM and under 1000 nM.
The like results for `C=CC(=O)N1CCN(c2nc(OC[C@@H]3CCCN3C)nc3c2COC(c2cccc4ccccc24)C3)C[C@@H]1CC#N` (stereo partly drawn) [Compound 3] were, in that order, over 1 µM and under 1000 nM.
Regarding `C=CC(=O)N1CCN(c2nc(OC[C@H]3CCCN3C)nc3c2COC(c2cccc4cccc(C)c24)C3)C[C@@H]1CC#N` (stereo partly drawn) [Compound 16], the IC50 in the test on A549 cells (setting [2]) is over 1 µM; with NCI-H358 cells (setting [3]), under 1000 nM; in the test with A375 cells (Homo sapiens, A-375) it was over 1 µM.
As for `C=CC(=O)N1CCN(c2nc(NCCN(C)C)nc3c2CO[C@H](c2cccc4cccc(Cl)c24)C3)C[C@@H]1CC#N` [Compound 45], in the test on NCI-H358 cells (setting [1]), the 50% inhibitory concentration (IC50) is under 1000 nM.
For `C=CC(=O)N1CCN(c2nc(OC(C)CN(C)C)nc3c2COC(c2cccc4cccc(C)c24)C3)C[C@@H]1CC#N` (stereo partly drawn) [Compound 14], the IC50 was over 1 µM in the test with A549 cells (setting [2]); under 1000 nM in the test with NCI-H358 cells (setting [3]); over 1 µM in the test with A375 cells (Homo sapiens, A-375).
In the case of `C=CC(=O)N1CCN(c2nc(OC[C@@H]3CCCN3C)nc3c2COCC3)C[C@@H]1CC#N` [Compound 1], the IC50 in the test with A549 cells (setting [2]) was over 1 µM; with A549 cells (Homo sapiens, A549, 120 h, Table 1, CellTiter Glo, number) it was over 10 µM; in the test with NCI-H358 cells (setting [3]), over 1000 nM; in the test with NCI-H358 cells (Homo sapiens, NCI-H358, 120 h, Table 1, number, read-out: IC50 (μM): (H358)), over 10000 nM.
With `C=CC(=O)N1CCN(c2nc(OC[C@@H]3CCCN3C)nc3c2COC(c2ccccc2C(F)(F)F)C3)C[C@@H]1CC#N` (stereo partly drawn) [Compound 2-1], the IC50 with A549 cells (setting [5]) was over 1 µM; in the test on NCI-H358 cells (setting [4]), under 1000 nM; in the test on A375 cells it was over 1 µM.
Regarding `CC#CC(=O)N1CCN(c2nc(OC[C@@H]3CCCN3C)nc3c2COC(c2cccc4cccc(C)c24)C3)C[C@@H]1CC#N` (stereo partly drawn) [Compound 24], the concentration for half-maximal inhibition (IC50) in the test with A549 cells (setting [2]) was over 1 µM; with NCI-H358 cells (setting [3]) it was under 1000 nM; in the test on A375 cells (Homo sapiens, A-375), over 1 µM.

Source of the values: patent US20220315598A1, “Oxygen-containing Heterocyclic Compound, Preparation Method Therefor and Use Thereof” (SHANGHAI YINGLI PHARMACEUTICAL CO., LTD, priority 2019, published 2022).
